Key:
Test in all cases: relative viability (nuclei count vs DMSO), 5 days (fraction); higher = more cells survive
[1] = compound: COc1cc2nc(N3CCCN(C)CC3)nc(NC3CCN(Cc4ccccc4)CC3)c2cc1OC + COc1cc2c(Oc3ccc(NC(=O)C4(C(=O)Nc5ccc(F)cc5)CC4)cc3F)ccnc2cc1OCCCN1CCOCC1 [Foretinib] (partner 0.25 µM)
Method in brief: (§1)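 Lung cancer cell lines were seeded in 1536-well plates and dosed by pin tool the next day, with either a single drug or a fixed anchor-drug dose combined with five library-drug doses (not always all listed) spaced in √10 steps. Five days later, one step fixed the cells and stained their nuclei (final 0.05% Triton X-100, 1% formaldehyde, 1 ug/ml Hoechst), and nuclei were counted on 4× images. Relative viability is the nuclei count in treated wells divided by the count in vehicle wells, and each value is the median of duplicate plates.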

AZD6482 + OSI-027 = compound: Cc1cc([C@@H](C)Nc2ccccc2C(=O)O)c2nc(N3CCOCC3)cc(=O)n2c1 [AZD6482] + COc1cccc2cc(-c3nc([C@H]4CC[C@H](C(=O)O)CC4)n4ncnc(N)c34)[nH]c12 [OSI-027] (partner 0.5 µM)
Method in brief: as §1

AZD6482 + Lapatinib = compound: Cc1cc([C@@H](C)Nc2ccccc2C(=O)O)c2nc(N3CCOCC3)cc(=O)n2c1 [AZD6482] + CS(=O)(=O)CCNCc1ccc(-c2ccc3ncnc(Nc4ccc(OCc5cccc(F)c5)c(Cl)c4)c3c2)o1 [Lapatinib] (partner 2 µM)
Method in brief: as §1

AZD6482 + Pemetrexed = compound: Cc1cc([C@@H](C)Nc2ccccc2C(=O)O)c2nc(N3CCOCC3)cc(=O)n2c1 [AZD6482] + Nc1nc2[nH]cc(CCc3ccc(C(=O)N[C@@H](CCC(=O)O)C(=O)O)cc3)c2c(=O)[nH]1 [Pemetrexed] (partner 0.2 µM)
Method in brief: as §1

Row | Cell Line | relative viability ([1]; first compound 0.2 µM) | relative viability ([1]; first compound 0.6325 µM) | relative viability ([1]; first compound 2 µM) | relative viability ([1]; first compound 6.325 µM) | relative viability (AZD6482 + OSI-027; first compound 0.08 µM) | relative viability (AZD6482 + OSI-027; first compound 0.253 µM) | relative viability (AZD6482 + OSI-027; first compound 0.8 µM) | relative viability (AZD6482 + OSI-027; first compound 2.53 µM) | relative viability (AZD6482 + OSI-027; first compound 8 µM) | relative viability (AZD6482 + Lapatinib; first compound 0.08 µM) | relative viability (AZD6482 + Lapatinib; first compound 0.253 µM) | relative viability (AZD6482 + Lapatinib; first compound 0.8 µM) | relative viability (AZD6482 + Lapatinib; first compound 2.53 µM) | relative viability (AZD6482 + Lapatinib; first compound 8 µM) | relative viability (AZD6482 + Pemetrexed; first compound 0.08 µM) | relative viability (AZD6482 + Pemetrexed; first compound 0.253 µM) | relative viability (AZD6482 + Pemetrexed; first compound 0.8 µM) | relative viability (AZD6482 + Pemetrexed; first compound 2.53 µM) | relative viability (AZD6482 + Pemetrexed; first compound 8 µM)
1 | NCI-H1755 | 0.9 | 0.899 | 0.922 | 0.815 | 0.605 | 0.595 | 0.662 | 0.486 | 0.494 | 0.955 | 0.969 | 1.03 | 0.704 | 0.749 | 0.416 | 0.435 | 0.436 | 0.383 | 0.36
2 | NCI-H1793 | 0.591 | 0.882 | 0.848 | 0.701 | 0.266 | 0.243 | 0.261 | 0.132 | 0.16 | 0.559 | 0.368 | 0.565 |  | 0.321 | 0.509 | 0.545 | 0.818 | 0.416 | 0.383
3 | NCI-H1915 | 1.05 | 1.01 | 1.1 | 1.12 | 0.575 | 0.57 | 0.689 | 0.505 | 0.595 | 0.933 | 0.813 | 1.05 | 0.844 | 1.01 | 0.491 | 0.434 | 0.513 | 0.349 | 0.452
4 | NCI-H1944 | 0.882 | 0.867 | 0.862 | 0.807 | 0.389 | 0.417 | 0.428 | 0.249 | 0.301 | 0.85 | 0.863 | 0.926 | 0.527 | 0.564 | 0.535 | 0.575 | 0.604 | 0.427 | 0.499
5 | NCI-H1975 | 0.972 | 0.97 | 1 | 0.955 | 0.631 | 0.616 | 0.779 | 0.495 | 0.427 | 0.727 | 0.802 | 0.814 | 0.626 | 0.581 | 0.257 | 0.28 | 0.31 | 0.303 | 0.308
6 | NCI-H1993 | 0.801 | 0.735 | 0.756 | 0.912 | 0.502 | 0.521 | 0.516 | 0.529 | 0.534 | 0.779 | 0.791 |  |  | 0.784 | 0.464 | 0.58 | 0.48 | 0.4 | 1.03
7 | NCI-H2009 | 1.27 | 1.22 | 1.23 | 1.09 | 0.56 | 0.601 | 0.555 | 0.224 | 0.388 | 1.1 | 1 | 1.04 | 0.579 | 0.815 | 0.972 | 1.12 | 1.11 | 0.724 | 1.01
8 | NCI-H2023 | 0.943 | 0.834 | 0.834 | 0.455 | 0.398 | 0.336 | 0.341 | 0.237 | 0.245 | 0.729 | 0.74 | 0.798 | 0.424 | 0.422 | 0.254 | 0.226 | 0.204 | 0.175 | 0.176
9 | NCI-H2085 | 0.917 | 0.926 | 0.965 | 0.944 | 0.523 | 0.478 | 0.473 | 0.28 | 0.331 | 0.42 | 0.407 | 0.457 | 0.366 | 0.372 | 0.567 | 0.384 | 0.407 | 0.317 | 0.299
10 | NCI-H2087 | 1.12 | 0.99 | 1.31 | 1.25 | 0.495 | 0.43 | 0.46 |  | 0.332 | 1.22 | 1.12 | 1.43 | 0.864 | 0.98 | 0.682 | 0.63 | 0.596 | 0.593 | 0.674
11 | NCI-H2126 | 1.09 | 1.15 | 1.16 | 1.09 | 0.647 | 0.652 | 0.704 | 0.403 | 0.485 | 0.635 | 0.644 | 0.636 | 0.519 | 0.49 | 0.683 | 0.677 | 0.692 | 0.411 | 0.434
12 | NCI-H2170 | 0.982 | 0.955 | 0.996 | 1.01 | 0.66 | 0.631 | 0.612 | 0.531 | 0.677 | 0.245 | 0.249 | 0.303 | 0.248 | 0.295 | 0.257 | 0.242 | 0.265 | 0.252 | 0.251
13 | NCI-H2228 | 1.02 | 0.711 | 0.729 | 0.499 |  | 0.316 | 0.548 | 0.358 | 0.445 | 0.834 | 0.994 | 0.971 | 0.662 | 0.715 | 0.325 | 0.3 | 0.325 | 0.303 | 0.309
14 | NCI-H2347 | 0.791 | 0.834 | 1.02 | 1 | 0.222 | 0.268 | 0.317 | 0.194 | 0.223 |  | 0.946 | 0.988 | 0.653 | 0.763 | 0.382 | 0.455 | 0.362 | 0.38 | 0.364
15 | NCI-H2405 | 1.05 | 1 | 1.06 | 1.07 | 0.46 |  | 0.595 | 0.369 | 0.336 | 0.69 |  | 1.12 | 0.627 | 0.483 | 0.81 | 0.977 | 0.987 | 0.569 | 0.436
16 | NCI-H3122 | 0.915 | 1.02 | 0.955 | 0.968 | 1.01 | 1.01 | 0.89 |  | 0.465 | 0.965 | 0.993 | 1.03 | 0.893 | 1.11 | 0.191 | 0.198 | 0.2 | 0.189 | 0.189
17 | PC-3 [JPC-3] | 1.03 | 1.03 | 1.14 | 0.992 | 0.654 | 0.732 | 0.723 | 0.502 | 0.633 | 0.438 | 0.433 | 0.438 | 0.349 | 0.422 | 1.07 | 1.05 | 1.04 | 0.634 | 0.533

From the supplement of paper PMC10307832
